Consider nine compounds from ChEMBL document CHEMBL1139572 (Bioorg Med Chem Lett, 2005).

Assay [1] addresses T1, Progesterone receptor (Homo sapiens, UniProt P06401).
T1 sequence (P06401 whole entry): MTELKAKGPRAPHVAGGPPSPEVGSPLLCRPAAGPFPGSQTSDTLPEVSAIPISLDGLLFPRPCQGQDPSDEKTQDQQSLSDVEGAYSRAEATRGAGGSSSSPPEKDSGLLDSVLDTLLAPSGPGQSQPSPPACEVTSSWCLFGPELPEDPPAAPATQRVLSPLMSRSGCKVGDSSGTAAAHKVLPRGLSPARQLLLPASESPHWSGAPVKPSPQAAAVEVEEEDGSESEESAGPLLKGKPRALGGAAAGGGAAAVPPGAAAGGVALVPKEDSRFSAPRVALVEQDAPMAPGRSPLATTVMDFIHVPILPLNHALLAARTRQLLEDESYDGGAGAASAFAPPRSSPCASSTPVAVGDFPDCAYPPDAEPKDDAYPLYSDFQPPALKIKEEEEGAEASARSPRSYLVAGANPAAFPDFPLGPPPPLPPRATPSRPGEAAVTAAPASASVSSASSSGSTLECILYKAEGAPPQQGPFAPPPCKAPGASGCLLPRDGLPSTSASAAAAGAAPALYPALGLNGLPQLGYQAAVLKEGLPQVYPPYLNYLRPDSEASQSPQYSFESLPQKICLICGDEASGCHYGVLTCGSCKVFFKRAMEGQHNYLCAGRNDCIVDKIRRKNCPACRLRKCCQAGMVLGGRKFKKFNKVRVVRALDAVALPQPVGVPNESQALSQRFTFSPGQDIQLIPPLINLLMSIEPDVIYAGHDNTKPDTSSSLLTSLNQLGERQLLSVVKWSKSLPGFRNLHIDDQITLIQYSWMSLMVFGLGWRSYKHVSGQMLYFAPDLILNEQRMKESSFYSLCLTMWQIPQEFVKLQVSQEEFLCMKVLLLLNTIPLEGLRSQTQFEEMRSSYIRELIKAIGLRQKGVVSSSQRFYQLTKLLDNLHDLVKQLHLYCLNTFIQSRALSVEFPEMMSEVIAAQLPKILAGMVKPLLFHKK
Description: Inhibition of 4 nM progesterone-stimulated transactivation of MMTV-Luc reporter in CV-1 cells expressing PR-B. The format is functional, cell-based.

Assay [2] addresses T1, Progesterone receptor. Description: Displacement of fluorescent ligand from binding domain of progesterone receptor.

As for `CC1CC(c2ccc(Cl)c(Cl)c2)=NN1S(=O)(=O)c1ccc(Cl)cc1` (stereo unspecified), the Log IC50 in assay [1] was -6.7. Further, the Ki (usually the dissociation constant of the complex between target and ligand, obtained from inhibition or displacement) in assay [2] is 39.8 nM. Regarding `CN(C)c1ccc([C@@H]2CN(S(=O)(=O)c3ccc(Cl)cc3)N=C2c2ccc(Cl)c(Cl)c2)cc1`, in assay [1], the Log IC50 is -5.8. The compound further showed a Ki in assay [2] of 100 nM. Take `O=S(=O)(c1ccc(Cl)cc1)N1N=C(c2ccc(Cl)c(Cl)c2)CC1c1ccccc1` (stereo unspecified): the Log IC50 in assay [1] is -6.4. The compound also showed a Ki in assay [2] of 7940 nM. As for `CN(C)c1ccc(C2CN(S(=O)(=O)c3ccc(Cl)cc3)N=C2c2ccc(Cl)c(Cl)c2)cc1` (stereo unspecified), in assay [1], the Log IC50 is -6.1. The Ki in assay [2] was 39.8 nM.

With `C[C@@H]1CN(S(=O)(=O)c2ccc(Cl)cc2)N=C1c1ccc(Cl)c(Cl)c1`, the Log IC50 in assay [1] was -5.3. Further, the Ki in assay [2] was 2000 nM. Consider `C[C@H]1CN(S(=O)(=O)c2ccc(Cl)cc2)N=C1c1ccc(Cl)c(Cl)c1`, for which, in assay [1], the Log IC50 is -7.6. The same compound gave a Ki in assay [2] of 20 nM. As to `O=S(=O)(c1ccc(Cl)cc1)N1CC(c2ccccc2)C(c2ccc(Cl)c(Cl)c2)=N1` (stereo unspecified), in assay [2], the Ki is 100 nM. Turning to `CC1CN(S(=O)(=O)c2ccc(Cl)cc2)N=C1c1ccc(Cl)c(Cl)c1` (stereo unspecified), the Ki in assay [2] is 39.8 nM.

On to `CN(C)c1ccc([C@H]2CN(S(=O)(=O)c3ccc(Cl)cc3)N=C2c2ccc(Cl)c(Cl)c2)cc1`, for which the Log IC50 in assay [1] is > -5.5. For the same compound, the Ki in assay [2] is > 10000 nM.
